From patent US8926603B2, “System and method for denaturing and fixing collagenous tissue” (Hansen Medical, Inc., priority 2004, dated 2015)

Assay: denaturation accompanied by genepin treatment, study at the University of Pennsylvania (FIG. 6)
Settings: versus denatured collagenous tissue without genepin treatment
Excerpt: Referring to FIGS. 5A-C, a denatured collagenous tissue mass exposed to genepin (371) is depicted. […] The result is a partial recovery or recreation of the mechanical properties of collagenous tissue to the state that they were prior to denaturation. […] Referring to FIG. 6, this has been experimentally confirmed in a study at the University of Pennsylvania, as directed by the inventors of the subject invention.

Compound: COC(=O)C1=CO[C@@H](O)[C@@H]2C(CO)=CC[C@H]12 [genepin]
- susceptibility to creep deformation of denatured collagenous tissue: less susceptible to creep deformation
